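Cultured in 96-well plates, cells were exposed to test compound for 48 hours across five concentrations. At the GI50, growth is halved. At the TGI there is no net growth.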
Columns and labels:
Test in all cases: DTP human tumour cell line panel, 48 h
MOLT-4 leukemia = test system: MOLT-4 leukemia
SK-OV-3 ovarian = test system: SK-OV-3 ovarian
NCI-H23 lung = test system: NCI-H23 lung
SK-MEL-28 melanoma = test system: SK-MEL-28 melanoma
MCF7 breast = test system: MCF7 breast
IGROV1 ovarian = test system: IGROV1 ovarian
SF-268 CNS = test system: SF-268 CNS
HT29 colon = test system: HT29 colon
LOX IMVI melanoma = test system: LOX IMVI melanoma
SNB-19 CNS = test system: SNB-19 CNS
SF-295 CNS = test system: SF-295 CNS
KM12 colon = test system: KM12 colon
T-47D breast = test system: T-47D breast
MDA-MB-435 = test system: MDA-MB-435
NCI-H226 lung = test system: NCI-H226 lung
M14 melanoma = test system: M14 melanoma
ACHN renal = test system: ACHN renal
MALME-3M melanoma = test system: MALME-3M melanoma
SK-MEL-5 melanoma = test system: SK-MEL-5 melanoma
K-562 leukemia = test system: K-562 leukemia
OVCAR-5 ovarian = test system: OVCAR-5 ovarian
RXF 393 renal = test system: RXF 393 renal
HCT-116 colon = test system: HCT-116 colon
SR leukemia = test system: SR leukemia
HCC-2998 colon = test system: HCC-2998 colon
SNB-75 CNS = test system: SNB-75 CNS
786-0 renal = test system: 786-0 renal
HCT-15 colon = test system: HCT-15 colon
NCI/ADR-RES ovarian = test system: NCI/ADR-RES ovarian
U251 CNS = test system: U251 CNS
UO-31 renal = test system: UO-31 renal
OVCAR-8 ovarian = test system: OVCAR-8 ovarian
OVCAR-3 ovarian = test system: OVCAR-3 ovarian
HL-60(TB) leukemia = test system: HL-60(TB) leukemia
HS 578T breast = test system: HS 578T breast
CAKI-1 renal = test system: CAKI-1 renal
SN12C renal = test system: SN12C renal
COLO 205 colon = test system: COLO 205 colon
A498 renal = test system: A498 renal
A549 NSCLC = test system: A549 NSCLC
UACC-62 melanoma = test system: UACC-62 melanoma
BT-549 breast = test system: BT-549 breast
DU-145 prostate = test system: DU-145 prostate
RPMI-8226 leukemia = test system: RPMI-8226 leukemia
SF-539 CNS = test system: SF-539 CNS
NCI-H522 lung = test system: NCI-H522 lung
SW-620 colon = test system: SW-620 colon
NCI-H460 lung = test system: NCI-H460 lung
MDA-MB-231 breast = test system: MDA-MB-231 breast
HOP-62 NSCLC = test system: HOP-62 NSCLC
UACC-257 melanoma = test system: UACC-257 melanoma
TK-10 renal = test system: TK-10 renal
CCRF-CEM leukemia = test system: CCRF-CEM leukemia
OVCAR-4 ovarian = test system: OVCAR-4 ovarian
HOP-92 NSCLC = test system: HOP-92 NSCLC

CN1CCc2c(c3ccccc3c3ccccc23)C1
GI50 (MOLT-4 leukemia): 3.78 µM | TGI (MOLT-4 leukemia): 19.9 µM | GI50 (SK-OV-3 ovarian): 8.86 µM | TGI (SK-OV-3 ovarian): 44.2 µM | GI50 (NCI-H23 lung): 5.24 µM | TGI (NCI-H23 lung): 21.7 µM | GI50 (SK-MEL-28 melanoma): 4.75 µM | TGI (SK-MEL-28 melanoma): 18.9 µM | GI50 (MCF7 breast): 3.63 µM | TGI (MCF7 breast): 13.6 µM | GI50 (IGROV1 ovarian): 4.45 µM | TGI (IGROV1 ovarian): 16.3 µM | GI50 (SF-268 CNS): 6.46 µM | TGI (SF-268 CNS): 28 µM | GI50 (HT29 colon): 4.23 µM | TGI (HT29 colon): 16.8 µM | GI50 (LOX IMVI melanoma): 3.17 µM | TGI (LOX IMVI melanoma): 11.2 µM | GI50 (SNB-19 CNS): 4.38 µM | TGI (SNB-19 CNS): 39.1 µM | GI50 (SF-295 CNS): 5.37 µM | TGI (SF-295 CNS): 33.6 µM | GI50 (KM12 colon): 4.91 µM | TGI (KM12 colon): 16.8 µM | GI50 (T-47D breast): 5.68 µM | TGI (T-47D breast): 26.7 µM | GI50 (MDA-MB-435): 4.47 µM | TGI (MDA-MB-435): 17.3 µM | GI50 (NCI-H226 lung): 3.77 µM | TGI (NCI-H226 lung): 29.3 µM | GI50 (M14 melanoma): 4.34 µM | TGI (M14 melanoma): 16.7 µM | GI50 (ACHN renal): 3.6 µM | TGI (ACHN renal): 14.5 µM | GI50 (MALME-3M melanoma): 3.34 µM | TGI (MALME-3M melanoma): 11.6 µM | GI50 (SK-MEL-5 melanoma): 2.97 µM | TGI (SK-MEL-5 melanoma): 11.4 µM | GI50 (K-562 leukemia): 3.59 µM | TGI (K-562 leukemia): 14.6 µM | GI50 (OVCAR-5 ovarian): 10.9 µM | TGI (OVCAR-5 ovarian): 38.1 µM | GI50 (RXF 393 renal): 4.18 µM | TGI (RXF 393 renal): 17.1 µM | GI50 (HCT-116 colon): 3.93 µM | TGI (HCT-116 colon): 13.5 µM | GI50 (SR leukemia): 3.44 µM | TGI (SR leukemia): 15.6 µM | GI50 (HCC-2998 colon): 5.81 µM | TGI (HCC-2998 colon): 20.2 µM | GI50 (SNB-75 CNS): 6.14 µM | TGI (SNB-75 CNS): 19.9 µM | GI50 (786-0 renal): 6.23 µM | TGI (786-0 renal): 21.3 µM | GI50 (HCT-15 colon): 4.43 µM | TGI (HCT-15 colon): 51.9 µM | GI50 (NCI/ADR-RES ovarian): 4.58 µM | TGI (NCI/ADR-RES ovarian): 25.3 µM | GI50 (U251 CNS): 3.85 µM | TGI (U251 CNS): 16.2 µM | GI50 (UO-31 renal): 3.26 µM | TGI (UO-31 renal): 17.2 µM | GI50 (OVCAR-8 ovarian): 4.46 µM | TGI (OVCAR-8 ovarian): 43.2 µM | GI50 (OVCAR-3 ovarian): 9.92 µM | TGI (OVCAR-3 ovarian): 25.6 µM | GI50 (HL-60(TB) leukemia): 3.32 µM | TGI (HL-60(TB) leukemia): 10.2 µM | GI50 (HS 578T breast): 3.29 µM | TGI (HS 578T breast): 17.8 µM | GI50 (CAKI-1 renal): 4.12 µM | TGI (CAKI-1 renal): 18.5 µM | GI50 (SN12C renal): 3.74 µM | TGI (SN12C renal): 27.6 µM | GI50 (COLO 205 colon): 3.32 µM | TGI (COLO 205 colon): 11.1 µM | GI50 (A498 renal): 1.81 µM | TGI (A498 renal): 7.41 µM | GI50 (A549 NSCLC): 3.25 µM | TGI (A549 NSCLC): 18.5 µM | GI50 (UACC-62 melanoma): 4.12 µM | TGI (UACC-62 melanoma): 16.1 µM | GI50 (BT-549 breast): 12.4 µM | TGI (BT-549 breast): 29 µM | GI50 (DU-145 prostate): 5.28 µM | TGI (DU-145 prostate): 20.5 µM | GI50 (RPMI-8226 leukemia): 3.66 µM | TGI (RPMI-8226 leukemia): 12.7 µM | GI50 (SF-539 CNS): 5.1 µM | TGI (SF-539 CNS): 18.1 µM | GI50 (NCI-H522 lung): 2.76 µM | TGI (NCI-H522 lung): 8.49 µM | GI50 (SW-620 colon): 3.59 µM | TGI (SW-620 colon): 15.3 µM | GI50 (NCI-H460 lung): 3.67 µM | TGI (NCI-H460 lung): 13.6 µM | GI50 (MDA-MB-231 breast): 8.62 µM | TGI (MDA-MB-231 breast): 32.2 µM | GI50 (HOP-62 NSCLC): 7.11 µM | TGI (HOP-62 NSCLC): 26.1 µM | GI50 (UACC-257 melanoma): 2.87 µM | TGI (UACC-257 melanoma): 8.72 µM | GI50 (TK-10 renal): 4.27 µM | TGI (TK-10 renal): 15.4 µM | GI50 (CCRF-CEM leukemia): 4.62 µM | TGI (CCRF-CEM leukemia): 21.5 µM | GI50 (OVCAR-4 ovarian): 10.3 µM | TGI (OVCAR-4 ovarian): 40.2 µM | GI50 (HOP-92 NSCLC): 3.31 µM | TGI (HOP-92 NSCLC): 16.7 µM

From PubChem BioAssay (NCI)
